Data set [1] can be described thus: Chemotherapy toxicity attenuation bioassay, blood counts. In kind it is in vivo, mouse. To be noted: Heps bearing mice.
For data set [2], the system named is mouse liver cancer model (Heps). Description: Chemotherapy efficacy potentiation bioassay, tumor weight. The format is in vivo. As to the method:
Take strongly growing tumor cells under sterile condition, and prepare it into a cell suspension with a density of about 1˜2×10^7 cells/ml by a homogenate method. Inoculate 0.2 ml/mouse of the cell suspension subcutaneously into the armpit of the axillary host. Administrate the test drug next day according to the experimental design protocol. Euthanize each group animal after ˜3 weeks and remove the tumor from mice and weigh it. Calculate the tumor inhibition percentage by the following formula: Tumor inhibition percentage (%)=[(mean tumor weight of control group−mean tumor weight of treatment group)/mean tumor weight of control group]×100% 5.2.2 Caudal Vein Inoculation Model

For data set [3] the following is noted: cited from earlier work.
The test system of data set [4] is Human Liver Cancer QGY Model. Description: Liver in situ inoculation model, survival. In kind it is in vivo, nude mice. To be noted: 30 mg/kg/d ip × 7 qd. As to the method: (§1) Take intravenous administration, twice per day. For mice models inoculated with human tumor models and cells, continue injection for seven days; for mice models inoculated with mouse tumor cells, continue injection for five days.
(§2) Positive controls: CTX, 30 mg/kg; MMC, 2 mg/kg; 5Fu, 30 mg/kg; intraperitoneal or intravenous injection, once daily, continues for 7 days.

Data set [5] has as its system Mouse Melanoma B16 Model. Briefly: Caudal vein inoculation model, lung metastatic colonies. In kind it is in vivo, C57BL/6 mouse. As to the method:
as §1, §2
(§3) Mouse B16 melanoma cells in logarithmic growth phase are taken out under sterile condition, and a cell suspension with a density of about 2.5×10^5 cells/ml is prepared. Inoculate 0.2 ml/mouse of cell suspension into caudal vein of C57BL/6 mouse. Administrate the test drug next day according to the experimental design protocol, euthanize the animal after ˜3 weeks and remove the lungs from mice and count the metastatic colony in the lungs of each mouse. Calculate the tumor inhibition percentage based on the group mean colony by the following formula: Tumor inhibition percentage (%)=[(mean colony of control group−mean colony of treatment group)/mean colony of control group]×100% 5.3 Antineoplastic Toxicity Attenuation Bioassay

The format of data set [6] is in vivo, C57BL/6 mouse. To be noted: for Body Weight of Animals (g) End: Table 5. As to the method: as §3
Data set [7] deals with Human Gastric Cancer MGC Model. Description: Stomach in situ inoculation model, survival. In kind it is in vivo, nude mice. Particulars: 30 mg/kg/d ip × 7 qd. As for the experimental part:
as §1, §2
Take strongly growing in-vivo 2nd-generation MGC stomach cancer (cells) under sterile condition, and prepare it into a cell suspension with a density of 2×10^7 cells/ml by a homogenate method. Inject 0.05 ml of the cell suspension into the muscular layer of greater curvature of stomach of the nude mice via a surgery operation. Administrate the above mice with test drug next day according to the experimental design protocol, and calculate the life extension percentage of the tumor bearing host: Life extension percentage (%)=(mean survival days of treatment group/mean survival days of control)×100% 5.1.2 Liver In Situ Inoculation Model

In data set [8] the test system is Human Intestine Cancer LOVO Model. Description: Efficacy bioassay on intestine cancer model, survival. The format is in vivo, nude mice. Particulars: 30 mg/kg/d ip × 7 qd.
Excerpt: Human intestine cancer LOVO model, human stomach cancer MGC model, and human liver cancer QGY model, all tumor strains are in vivo subcultured for more than 2nd generation. Mouse melanoma B16 cell are subcultured and maintained by Pharmacology Department of Shanghai Institute of Pharmaceutical Industry.
as §1, §2

We go through 6 molecules from patent US8487090B2, “Water solution of 20(R)-ginsenoside Rg3 pharmaceutical composition and process thereof” (Dalian Fusheng Natural Medicine Development Co., Ltd., priority 2006, dated 2013).

Each structure is given as a SMILES string. Read-outs that look alike come from different tables or passages of the source. Marks after values point to notes of the source that are not given here.

In the case of `O=c1[nH]c(=O)n([C@H]2C[C@H](O)[C@@H](CO)O2)cc1F` [Example 5Fu, 5-Fluorodeoxyuridine], in data set [1] (25 × 3 mg/kg/d), the “Hb” value is 90 ± 13.0 g/L, the “RBC 10^12/L” value is 3.1 ± 0.4 10^12/L and the “WBC (10^9/L)” value is 3.9 ± 0.3** 10^9/L. In addition, in data set [2] (25 × 3 mg/kg/d), the “Mean Tumor weight (g, mean ± SD)” value was determined as 1.08 ± 0.34 g and the “Tumor Inhibition Percentage (%)” value was 41.30%.

Turning to `CN(Cc1cnc2nc(N)nc(N)c2n1)c1ccc(C(=O)N[C@@H](CCC(=O)O)C(=O)O)cc1` [MTX], in data set [1] (5 × 3 mg/kg/d), the “Hb” value is on record as 51 ± 1.0 g/L, the “RBC 10^12/L” value was 1.8 ± 0.1** 10^12/L and the “WBC (10^9/L)” value is on record as 1.6 ± 0.1** 10^9/L. In data set [2] (5 × 3 mg/kg/d), the “Mean Tumor weight (g, mean ± SD)” value is listed as 0.27 ± 0.01 g and the “Tumor Inhibition Percentage (%)” value is 85.32%.

On to `CC(C)=CCC[C@](C)(O)[C@H]1CC[C@]2(C)[C@@H]1[C@H](O)C[C@@H]1[C@@]3(C)CC[C@H](O[C@@H]4O[C@H](CO)[C@@H](O)[C@H](O)[C@H]4O[C@@H]4O[C@H](CO)[C@@H](O)[C@H](O)[C@H]4O)C(C)(C)[C@@H]3CC[C@]12C` [20(R)-ginsenoside Rg3], for which the solubility in water entry in data set [3] is on record as “insoluble in water”.

On to `N.N.[Cl][Pt][Cl]` [PDD], for which, in data set [2] (1 × 3 mg/kg/d), the “Mean Tumor weight (g, mean ± SD)” value was 1.09 ± 0.30 g and the “Tumor Inhibition Percentage (%)” value stood at 40.76%.

With `CC(C)=CCC[C@](C)(O)[C@H]1CC[C@]2(C)[C@@H]1[C@H](O)C[C@@H]1[C@@]3(C)CC[C@H](O[C@@H]4O[C@H](CO)[C@@H](O)[C@H](O)[C@H]4O[C@@H]4O[C@H](CO)[C@@H](O)[C@H](O)[C@H]4O)C(C)(C)[C@@H]3CC[C@]12C` [20(S)-ginsenoside Rg3], the solubility in water entry in data set [3] is “easily dissolvable in water”.

In the case of `O=P1(N(CCCl)CCCl)NCCCO1` (stereo not shown) [CTX, Cyclophosphamide], in data set [4], the “Life Extension Percentage T/C × %” value is reported as 157.53% and the “Mean Survival Time (d) mean ± SD” value is 34.50 ± 4.0 days. In addition, in data set [5] (Table 2, 100 mg/kg/d ip × 2 qd), the “Antimetastatic Percentage %” value was determined as 92.41% and the “Lung Colony (number) mean ± SD” value is recorded as 3.5 ± 3.7 number. In data set [5] (Table 5, 15 mg/kg/d ip × 7 qd), the “Antimetastatic Percentage %” value is listed as 48.11% and the “Lung Colony (number) mean ± SD” value is given as 26.1 ± 5.2 number. For the same molecule, in data set [5] (Table 5, 30 mg/kg/d ip × 7 qd), the “Antimetastatic Percentage %” value amounted to 93.44% and the “Lung Colony (number) mean ± SD” value came out at 3.30 ± 2.6 number. Moreover, the “Body Weight of Animals (g) end” value in data set [6] (Table 2, 100 mg/kg/d ip × 2 qd) is 19.8/22.6 g. Moreover, the “Body Weight of Animals (g) End” value in data set [6] (15 mg/kg/d ip × 7 qd) was 20.2/24.7 g. In data set [6] (30 mg/kg/d ip × 7 qd), the “Body Weight of Animals (g) End” value was 19.9/22.6 g. Further, in data set [7], the “Life Extension Percentage T/C × %” value is on record as 181.02% and the “Mean Survival Time (d) mean ± SD” value is 41.20 ± 3.8 days. Moreover, in data set [8], the “Life Extension Percentage T/C × %” value was 214.71% and the “Mean Survival Time (d) mean ± SD” value came out at 29.20 ± 4.8 days. Moreover, in data set [1] (10 × 3 mg/kg/d), the “Hb” value is on record as 82 ± 8.4 g/L, the “RBC 10^12/L” value is reported as 2.8 ± 0.3** 10^12/L and the “WBC (10^9/L)” value was 3.2 ± 0.5** 10^9/L. In data set [2] (10 × 3 mg/kg/d), the “Mean Tumor weight (g, mean ± SD)” value was determined as 0.89 ± 0.29 g and the “Tumor Inhibition Percentage (%)” value came to 56.52%.
